In the NIST ThermoML archive (doi:10.1021/je5007696):
Several values for one entry are separate records, joined by “and”; a condition that tells them apart may be missing. Equal values may be shown once.

Legend:
[1] = Liquid; for viscosity: Concentric cylinders viscometry; for mass density: Vibrating tube method
[2] = refractive index (Na D-line) (dimensionless); settings: 101.33 kPa, Liquid, Standard Abbe refractometry
[3] = refractive index (Na D-line) (dimensionless); xn = mol fraction of the nth substance listed; settings: 100 kPa, Liquid, Standard Abbe refractometry, x2 = 0
[4] = xn = mol fraction of the nth substance listed; settings: 100 kPa, Liquid, x2 = 0; for viscosity: Concentric cylinders viscometry; for mass density: Vibrating tube method

CCCCO [butan-1-ol]
[1], 100 kPa
Settings	mass density [kg/m3]	viscosity [mPa·s]
288.15 K	813.373	3.375
293.15 K	809.573	2.945
298.15 K	805.762	2.581
303.15 K	801.923	2.272
308.15 K	798.053	2.008
313.15 K	794.147	1.782
318.15 K	790.231	1.587
323.15 K	786.238	1.419

[2]
Settings	refractive index
288.15 K	1.40135
293.15 K	1.39932
298.15 K	1.3973
303.15 K	1.39523
308.15 K	1.39318
313.15 K	1.3911
318.15 K	1.38901
323.15 K	1.38688

CCCCO [butan-1-ol] + CCC(C)=O
Settings	mass density, [4] [kg/m3]	refractive index, [3]	viscosity, [4] [mPa·s]
288.15 K	813.373	1.40135	3.375
293.15 K	809.573	1.39932	2.945
298.15 K	805.762	1.3973	2.581
303.15 K	801.923	1.39523	2.272
308.15 K	798.053	1.39318	2.008
313.15 K	794.147	1.3911	1.782
318.15 K	790.231	1.38901	1.587
323.15 K	786.238	1.38688	1.419

CCC(C)=O [butanone]
[1], 100 kPa
Settings	mass density [kg/m3]	viscosity
288.15 K	810.133	0.4306 mPa·s and 0.4306 mPa·s
293.15 K	804.926	0.4136 mPa·s and 0.4136 mPa·s
298.15 K	799.695	0.3962 mPa·s and 0.3962 mPa·s
303.15 K	794.435	0.3793 mPa·s and 0.3793 mPa·s
308.15 K	789.142	0.3626 mPa·s and 0.3626 mPa·s
313.15 K	783.814	0.3461 mPa·s and 0.3461 mPa·s
318.15 K	778.451	0.3303 mPa·s and 0.3303 mPa·s
323.15 K	773.047	0.3168 mPa·s and 0.3167 mPa·s

[2]
Settings	refractive index
288.15 K	1.38153
293.15 K	1.37892
298.15 K	1.37631
303.15 K	1.37366
308.15 K	1.37102
313.15 K	1.36834
318.15 K	1.36565
323.15 K	1.36294

CCC(C)=O [butanone] + COC(=O)CCCCC(=O)OC
[4]
Settings	viscosity [mPa·s]
288.15 K	0.4306
293.15 K	0.4136
298.15 K	0.3962
303.15 K	0.3793
308.15 K	0.3626
313.15 K	0.3461
318.15 K	0.3303
323.15 K	0.3167

COC(=O)CCCCC(=O)OC [dimethyl 1,6-hexanedioate]
[1]
Settings	mass density, 293.15 K [kg/m3]	viscosity, 288.15 K [mPa·s]	viscosity, 293.15 K [mPa·s]	viscosity, 298.15 K [mPa·s]	viscosity, 303.15 K [mPa·s]	viscosity, 308.15 K [mPa·s]	viscosity, 313.15 K [mPa·s]	viscosity, 318.15 K [mPa·s]	viscosity, 323.15 K [mPa·s]
100 kPa	–	3.751	3.289	2.91	2.604	2.342	2.121	1.933	1.79
101.33 kPa	1061.93	–	–	–	–	–	–	–	–

Settings	refractive index
[2], 298.15 K	1.4264
